# Reference: US20240409585A1, “MACROCYCLIC IMMUNOMODULATORS” (priority 2021, published 2024)
# Numbered stars: 1 amine (or outer) side, 2 acyl side, 3 side chain; on linkers, the order of the positions; unused ones are H or OH. Bridge positions count the residues as written; N and C are the ends. Square brackets hold non-standard residues; d marks the D form. Peptide text beside a SMILES is read from it. * marks the point of attachment. X31 = N=C(N)Nc1ccc(-c2ccc(C[C@H](N[*:1])C(=O)[*:2])cc2)cc1; Phe(3-CF3) = N[C@@H](Cc1cccc(C(F)(F)F)c1)C(=O)O; Ala(morpholin-4-yl) = N[C@@H](CN1CCOCC1)C(=O)O; Phe(4-COOH) = N[C@@H](Cc1ccc(C(=O)O)cc1)C(=O)O; Bip = N[C@@H](Cc1ccc(-c2ccccc2)cc1)C(=O)O; Abu(3R-NH2) = C[C@@H](N)[C@H](N)C(=O)O; Phe(3-Me) = Cc1cccc(C[C@H](N)C(=O)O)c1; Abu(3S-NH2) = C[C@H](N)[C@H](N)C(=O)O; Val(3-OH) = CC(C)(O)[C@H](N)C(=O)O; hPhe = N[C@@H](CCc1ccccc1)C(=O)O; Cha = N[C@@H](CC1CCCCC1)C(=O)O; aThr = C[C@H](O)[C@H](N)C(=O)O; Suc = O=C(CCC(=O)[*:2])[*:1]; dDab = NCC[C@@H](N)C(=O)O; Carboxymethyl = O=C(O)C*; NMeA = CN[C@@H](C)C(=O)O; Orn = NCCC[C@H](N)C(=O)O; Dab = NCC[C@H](N)C(=O)O; Dap = NC[C@H](N)C(=O)O; X9 = O=C(CCF)*
# Target: T1, Alexa fluor-647 labeled human PD-L1-Ig binding to Jurkat cell line over-expressing human PD-1 (Homo sapiens, UniProt Q15116)
# T1 construct: expressed in transfected cells; host or cells: Jurkat
# T1 sequence (Q15116 25-288): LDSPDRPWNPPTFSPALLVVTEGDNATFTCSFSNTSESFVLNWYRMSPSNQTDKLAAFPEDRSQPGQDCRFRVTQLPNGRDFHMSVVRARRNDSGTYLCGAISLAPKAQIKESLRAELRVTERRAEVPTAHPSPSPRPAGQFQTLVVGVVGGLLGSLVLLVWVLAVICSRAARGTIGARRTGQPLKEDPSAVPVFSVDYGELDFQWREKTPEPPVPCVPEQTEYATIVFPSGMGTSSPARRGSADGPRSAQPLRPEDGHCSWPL
# Assay: Jurkat-PD-1 Cell Binding High-Content Screening Assay (CBA): Method 3 (Alexa fluor-647 labeled PD-L1-Ig)
# Conditions: Jurkat-PD-1 cells, Alexa fluor-647 labeled PD-L1-Ig 177 nM; head μM; read-out: CBA Method 3 μM
# Outline: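 Jurkat cells over-expressing human PD-1 in RPMI/10% FCS were preincubated 2 h at 37 °C with compound, then exposed 1 h to Alexa fluor-647 labeled human PD-L1-Ig (177 nM final). Cells fixed in 4% paraformaldehyde with Hoechst 33342 and binding quantified by high-content imaging.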
row,IC50,SMILES
1,0.26 µM,Cc1cccc(C[C@@H]2NC(=O)[C@H](CC(=O)O)NC(=O)[C@H](Cc3ccc(OCC(=O)O)cc3)NC(=O)[C@H](CN3CCOCC3)NC(=O)CSC[C@@H](C(=O)N[C@@H](CCN)C(N)=O)NC(=O)[C@H](CCCN)NC(=O)[C@H](C(C)C)NC(=O)[C@H](CC3CCCCC3)NC(=O)[C@H](CCN)NC(=O)[C@@H](CC(C)C)NC(=O)[C@H](C)N(C)C(=O)[C@H](CCC(N)=O)NC(=O)[C@H](Cc3ccc(-c4ccccc4)cc3)NC(=O)[C@H](CCc3ccccc3)NC2=O)c1 [Example 5217] ({CH2CO}-[Ala(morpholin-4-yl)]Y(Carboxymethyl)D[Phe(3-Me)][hPhe][Bip]Q[NMeA][dL][Dab][Cha]V[Orn]C[Dab]-NH2; thioether N-14)
2,0.02 µM,Cc1cccc(C[C@@H]2NC(=O)[C@H](CC(=O)O)NC(=O)[C@H](Cc3ccc(OCC(=O)O)cc3)NC(=O)[C@H](CC3CCCCC3)NC(=O)CSC[C@@H](C(=O)N[C@@H](CCN)C(N)=O)NC(=O)[C@H](CCCN)NC(=O)[C@H](C(C)C)NC(=O)[C@H](CC3CCCCC3)NC(=O)[C@H](CCN)NC(=O)[C@@H](CC(C)C)NC(=O)[C@H](C)N(C)C(=O)[C@H](CCC(N)=O)NC(=O)[C@H](Cc3ccc(-c4ccccc4)cc3)NC(=O)[C@H](CCc3ccccc3)NC2=O)c1 [Example 5218] ({CH2CO}-[Cha]Y(Carboxymethyl)D[Phe(3-Me)][hPhe][Bip]Q[NMeA][dL][Dab][Cha]V[Orn]C[Dab]-NH2; thioether N-14)
3,0.1 µM,CC(C)C[C@H]1NC(=O)[C@H](C)N(C)C(=O)[C@H](CCC(N)=O)NC(=O)[C@H](Cc2ccc(-c3ccccc3)cc2)NC(=O)[C@H](CCc2ccccc2)NC(=O)[C@H](Cc2cccc(C(F)(F)F)c2)NC(=O)[C@H](CC(=O)O)NC(=O)[C@H](Cc2ccc(OCC(=O)O)cc2)NC(=O)[C@H]([C@@H](C)N)NC(=O)CSC[C@@H](C(=O)N[C@@H](CCN)C(N)=O)NC(=O)[C@H](CCCN)NC(=O)[C@H](C(C)C)NC(=O)[C@H](CC2CCCCC2)NC(=O)[C@H](CCN)NC1=O [Example 5219] ({CH2CO}-[Abu(3R-NH2)]Y(Carboxymethyl)D[Phe(3-CF3)][hPhe][Bip]Q[NMeA][dL][Dab][Cha]V[Orn]C[Dab]-NH2; thioether N-14)
4,0.02 µM,Cc1cccc(C[C@@H]2NC(=O)[C@H](CC(=O)O)NC(=O)[C@H](Cc3ccc(OCC(=O)O)cc3)NC(=O)[C@H](CC3CCCCC3)NC(=O)CSC[C@@H](C(=O)N[C@@H](CCN)C(N)=O)NC(=O)[C@H](CCC(N)=O)NC(=O)[C@H](C(C)C)NC(=O)[C@H](CC3CCCCC3)NC(=O)[C@H](CCN)NC(=O)[C@@H](CC(C)C)NC(=O)[C@H](C)N(C)C(=O)[C@H](CCC(N)=O)NC(=O)[C@H](Cc3ccc(-c4ccccc4)cc3)NC(=O)[C@H](CCc3ccccc3)NC2=O)c1 [Example 5222] ({CH2CO}-[Cha]Y(Carboxymethyl)D[Phe(3-Me)][hPhe][Bip]Q[NMeA][dL][Dab][Cha]VQC[Dab]-NH2; thioether N-14)
5,0.05 µM,CC(C)C[C@H]1NC(=O)[C@H](C)N(C)C(=O)[C@H](CCC(N)=O)NC(=O)[C@H](Cc2ccc(-c3ccccc3)cc2)NC(=O)[C@H](CCc2ccccc2)NC(=O)[C@H](Cc2cccc(C(F)(F)F)c2)NC(=O)[C@H](CC(=O)O)NC(=O)[C@H](Cc2ccc(OCC(=O)O)cc2)NC(=O)[C@H]([C@@H](C)N)NC(=O)CSC[C@@H](C(=O)N[C@@H](CCN)C(N)=O)NC(=O)[C@H](CCC(N)=O)NC(=O)[C@H](C(C)C)NC(=O)[C@H](CC2CCCCC2)NC(=O)[C@H](CCN)NC1=O [Example 5223] ({CH2CO}-[Abu(3R-NH2)]Y(Carboxymethyl)D[Phe(3-CF3)][hPhe][Bip]Q[NMeA][dL][Dab][Cha]VQC[Dab]-NH2; thioether N-14)
6,0.07 µM,CC(C)C[C@H]1NC(=O)[C@H](C)N(C)C(=O)[C@H](CCC(N)=O)NC(=O)[C@H](Cc2ccc(-c3ccccc3)cc2)NC(=O)[C@H](CCc2ccccc2)NC(=O)[C@H](Cc2cccc(C(F)(F)F)c2)NC(=O)[C@H](CC(=O)O)NC(=O)[C@H](Cc2ccc(OCC(=O)O)cc2)NC(=O)[C@H](CC2CCCCC2)NC(=O)CSC[C@@H](C(=O)N[C@@H](CCN)C(N)=O)NC(=O)[C@H](CO)NC(=O)[C@H](C(C)(C)O)NC(=O)[C@H](CC2CCCCC2)NC(=O)[C@H](CCN)NC1=O [Example 5226] ({CH2CO}-[Cha]Y(Carboxymethyl)D[Phe(3-CF3)][hPhe][Bip]Q[NMeA][dL][Dab][Cha][Val(3-OH)]SC[Dab]-NH2; thioether N-14)
7,0.03 µM,CC(C)C[C@H]1NC(=O)[C@H](C)N(C)C(=O)[C@H](Cc2ccc(C(=O)O)cc2)NC(=O)[C@H](Cc2ccc(-c3ccccc3)cc2)NC(=O)[C@H](Cc2ccc(C(=O)O)cc2)NC(=O)[C@H](Cc2cccc(C(F)(F)F)c2)NC(=O)[C@H](CC(=O)O)NC(=O)[C@H](Cc2ccc(C(=O)O)cc2)NC(=O)[C@H](CN2CCOCC2)NC(=O)CSC[C@@H](C(=O)N[C@@H](CCN)C(N)=O)NC(=O)[C@H](CNC(=O)CCF)NC(=O)[C@H](C(C)C)NC(=O)[C@H](CC2CCCCC2)NC(=O)[C@H](CCN)NC1=O [Example 5230] ({CH2CO}-[Ala(morpholin-4-yl)][Phe(4-COOH)]D[Phe(3-CF3)][Phe(4-COOH)][Bip][Phe(4-COOH)][NMeA][dL][Dab][Cha]V[Dap](X9)C[Dab]-NH2; thioether N-14)
8,0.14 µM,CC(C)C[C@H]1NC(=O)[C@H](C)N(C)C(=O)[C@H](Cc2ccc(-c3ccc(NC(=N)N)cc3)cc2)NC(=O)[C@H](Cc2ccc(-c3ccccc3)cc2)NC(=O)[C@H](Cc2ccc(OCC(=O)O)cc2)NC(=O)[C@H](Cc2cccc(C(F)(F)F)c2)NC(=O)[C@H](CC(=O)O)NC(=O)[C@H](Cc2ccc(C(=O)O)cc2)NC(=O)[C@H]([C@H](C)N)NC(=O)CSC[C@@H](C(=O)N[C@H](CCN)C(N)=O)NC(=O)[C@H](CO)NC(=O)[C@H]([C@H](C)O)NC(=O)[C@H](CC2CCCCC2)NC(=O)[C@H](CCN)NC1=O [Example 5231] ({CH2CO}-[Abu(3S-NH2)][Phe(4-COOH)]D[Phe(3-CF3)]Y(Carboxymethyl)[Bip][X31][NMeA][dL][Dab][Cha][aThr]SC[dDab]-NH2; thioether N-14)

# Same assay, conditions: Jurkat-PD-1 cells, Alexa fluor-647 labeled PD-L1-Ig 177 nM; nM; read-out: CBA Method 3
row,IC50,SMILES
1,0.006 µM,CC(C)C[C@H]1NC(=O)[C@H](C)N(C)C(=O)[C@H](CCC(N)=O)NC(=O)[C@H](Cc2ccc(-c3ccccc3)cc2)NC(=O)[C@H](CCc2ccccc2)NC(=O)[C@H](Cc2cccc(C(F)(F)F)c2)NC(=O)[C@H](CC(=O)O)NC(=O)[C@H](Cc2ccc(OCC(=O)O)cc2)NC(=O)[C@H](CN2CCOCC2)NC(=O)CSC[C@@H](C(=O)N[C@@H](CCN)C(N)=O)NC(=O)[C@H](CCCN)NC(=O)[C@H](C(C)C)NC(=O)[C@H](CC2CCCCC2)NC(=O)[C@H](CCN)NC1=O [Example 5216] ({CH2CO}-[Ala(morpholin-4-yl)]Y(Carboxymethyl)D[Phe(3-CF3)][hPhe][Bip]Q[NMeA][dL][Dab][Cha]V[Orn]C[Dab]-NH2; thioether N-14)
2,0.0024 µM,CC(C)C[C@H]1NC(=O)[C@H](C)N(C)C(=O)[C@H](CCC(N)=O)NC(=O)[C@H](Cc2ccc(-c3ccccc3)cc2)NC(=O)[C@H](Cc2ccc(OCC(=O)O)cc2)NC(=O)[C@H](Cc2cccc(C(F)(F)F)c2)NC(=O)[C@H](CC(=O)O)NC(=O)[C@H](Cc2ccc(OCC(=O)O)cc2)NC(=O)[C@H]([C@@H](C)N)NC(=O)CSC[C@@H](C(=O)N[C@@H](CCN)C(N)=O)NC(=O)[C@H](CCCN)NC(=O)[C@H](C(C)C)NC(=O)[C@H](CC2CCCCC2)NC(=O)[C@H](CCN)NC1=O [Example 5220] ({CH2CO}-[Abu(3R-NH2)]Y(Carboxymethyl)D[Phe(3-CF3)]Y(Carboxymethyl)[Bip]Q[NMeA][dL][Dab][Cha]V[Orn]C[Dab]-NH2; thioether N-14)
3,0.0035 µM,Cc1cccc(C[C@@H]2NC(=O)[C@H](CC(=O)O)NC(=O)[C@H](Cc3ccc(OCC(=O)O)cc3)NC(=O)[C@H](CN3CCOCC3)NC(=O)CSC[C@@H](C(=O)N[C@@H](CCN)C(N)=O)NC(=O)[C@H](CCC(N)=O)NC(=O)[C@H](C(C)C)NC(=O)[C@H](CC3CCCCC3)NC(=O)[C@H](CCN)NC(=O)[C@@H](CC(C)C)NC(=O)[C@H](C)N(C)C(=O)[C@H](CCC(N)=O)NC(=O)[C@H](Cc3ccc(-c4ccccc4)cc3)NC(=O)[C@H](Cc3ccc(OCC(=O)O)cc3)NC2=O)c1 [Example 5224] ({CH2CO}-[Ala(morpholin-4-yl)]Y(Carboxymethyl)D[Phe(3-Me)]Y(Carboxymethyl)[Bip]Q[NMeA][dL][Dab][Cha]VQC[Dab]-NH2; thioether N-14)
4,0.0015 µM,CC(C)C[C@H]1NC(=O)[C@H](C)N(C)C(=O)[C@H](CCC(N)=O)NC(=O)[C@H](Cc2ccc(-c3ccccc3)cc2)NC(=O)[C@H](CCc2ccccc2)NC(=O)[C@H](Cc2cccc(C(F)(F)F)c2)NC(=O)[C@H](CC(=O)O)NC(=O)[C@H](Cc2ccc(OCC(=O)O)cc2)NC(=O)[C@H]([C@@H](C)N)NC(=O)CSC[C@@H](C(=O)N[C@@H](CCN)C(N)=O)NC(=O)[C@H](CO)NC(=O)[C@H](C(C)(C)O)NC(=O)[C@H](CC2CCCCC2)NC(=O)[C@H](CCN)NC1=O [Example 5227] ({CH2CO}-[Abu(3R-NH2)]Y(Carboxymethyl)D[Phe(3-CF3)][hPhe][Bip]Q[NMeA][dL][Dab][Cha][Val(3-OH)]SC[Dab]-NH2; thioether N-14)
5,0.0008 µM,CC(C)C[C@H]1NC(=O)[C@H](C)N(C)C(=O)[C@H](Cc2ccc(C(=O)O)cc2)NC(=O)[C@H](Cc2ccc(-c3ccccc3)cc2)NC(=O)[C@H](Cc2ccc(C(=O)O)cc2)NC(=O)[C@H](Cc2cccc(C(F)(F)F)c2)NC(=O)[C@H](CC(=O)O)NC(=O)[C@H](Cc2ccc(C(=O)O)cc2)NC(=O)[C@H](CC2CCCCC2)NC(=O)CSC[C@@H](C(=O)N[C@@H](CCN)C(N)=O)NC(=O)[C@H](CNC(=O)CCC(=O)O)NC(=O)[C@H](C(C)C)NC(=O)[C@H](CC2CCCCC2)NC(=O)[C@H](CCN)NC1=O [Example 5228] ({CH2CO}-[Cha][Phe(4-COOH)]D[Phe(3-CF3)][Phe(4-COOH)][Bip][Phe(4-COOH)][NMeA][dL][Dab][Cha]V[Dap](Suc)C[Dab]-NH2; thioether N-14)
